Data from ChEMBL document CHEMBL1201862, “PubChem BioAssay data set” (2004).
Calls of active or inactive are those of the source.

Tests used:
[1] = HEK-293T cell viability reduction – luminescence, B-cell screen hits, cytotoxicity control for BCR NF-kB inhibitor project, dose response (AID 489021); assay type: functional, cell-based;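 further: HEK-293T cells carrying an NF-kB luciferase reporter; cells exposed to compound for about 14 hours before viability readout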
[2] = viability of PTEN-deleted HCT116 cells – cell-based, HCT116 PTEN knockout, dose response (AID 1047); assay type: functional;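 further: HCT116 colon tumor cells with PTEN knocked out; cells exposed to compound for 60 hours before readout; potency for loss of cell viability measured by luminescence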
[3] = viability of HCT116 lacking mutant beta-catenin – cell-based, human colon tumor, dose response (AID 1045); assay type: functional;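 further: HCT116 colon tumor cells with beta catenin knocked out; cells exposed to compound for 60 hours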
[4] = HepG2 cell cytotoxicity, dose response, cytotoxicity control for non-replicating M. tuberculosis project (AID 489018); assay type: functional; settings: Mycobacterium tuberculosis
[5] = THP-1 cell cytotoxicity, dose response, cytotoxicity control for non-replicating M. tuberculosis project (AID 489025); assay type: functional
[6] = cells; assay type: functional
[7] = molecular target: T1, DNA repair and recombination protein RAD54-like (Homo sapiens, UniProt Q92698); assay: RAD54 Holliday junction migration blockers – biochemical, fluorescence, cherry-picked samples, dose series, confirmation (AID 651657); assay type: functional
T1 sequence (Q92698 whole entry): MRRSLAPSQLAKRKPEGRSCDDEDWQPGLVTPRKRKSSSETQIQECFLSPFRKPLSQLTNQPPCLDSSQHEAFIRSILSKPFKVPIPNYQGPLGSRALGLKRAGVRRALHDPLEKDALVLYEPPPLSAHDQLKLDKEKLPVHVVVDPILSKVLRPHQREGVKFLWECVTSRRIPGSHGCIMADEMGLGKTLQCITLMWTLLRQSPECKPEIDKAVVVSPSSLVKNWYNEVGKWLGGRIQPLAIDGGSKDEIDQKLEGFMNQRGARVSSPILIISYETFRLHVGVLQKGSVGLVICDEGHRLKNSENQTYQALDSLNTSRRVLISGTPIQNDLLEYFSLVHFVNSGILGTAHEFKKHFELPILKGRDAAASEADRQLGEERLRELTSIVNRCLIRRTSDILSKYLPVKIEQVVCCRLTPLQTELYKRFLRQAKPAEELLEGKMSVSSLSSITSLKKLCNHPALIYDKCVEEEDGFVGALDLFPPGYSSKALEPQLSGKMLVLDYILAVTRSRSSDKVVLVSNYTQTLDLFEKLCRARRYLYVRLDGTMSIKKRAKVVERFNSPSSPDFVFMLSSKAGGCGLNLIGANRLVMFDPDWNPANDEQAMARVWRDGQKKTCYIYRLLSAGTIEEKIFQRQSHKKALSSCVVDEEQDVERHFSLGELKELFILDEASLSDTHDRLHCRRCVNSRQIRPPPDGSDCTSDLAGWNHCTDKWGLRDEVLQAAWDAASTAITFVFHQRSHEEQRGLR

[8] = Vero E6 cell cytotoxicity, dose response, cytotoxicity control for non-replicating M. tuberculosis project, secondary assay (AID 492998); assay type: functional, VeroE6; settings: Vero C1008
[9] = molecular target: T2, Coagulation factor XII (Homo sapiens, UniProt P00748); assay type: functional;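 further: activated factor XIIa alpha cleaving a fluorogenic AMC peptide substrate; inhibitor potency from loss of enzyme activity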
T2 sequence (P00748 whole entry): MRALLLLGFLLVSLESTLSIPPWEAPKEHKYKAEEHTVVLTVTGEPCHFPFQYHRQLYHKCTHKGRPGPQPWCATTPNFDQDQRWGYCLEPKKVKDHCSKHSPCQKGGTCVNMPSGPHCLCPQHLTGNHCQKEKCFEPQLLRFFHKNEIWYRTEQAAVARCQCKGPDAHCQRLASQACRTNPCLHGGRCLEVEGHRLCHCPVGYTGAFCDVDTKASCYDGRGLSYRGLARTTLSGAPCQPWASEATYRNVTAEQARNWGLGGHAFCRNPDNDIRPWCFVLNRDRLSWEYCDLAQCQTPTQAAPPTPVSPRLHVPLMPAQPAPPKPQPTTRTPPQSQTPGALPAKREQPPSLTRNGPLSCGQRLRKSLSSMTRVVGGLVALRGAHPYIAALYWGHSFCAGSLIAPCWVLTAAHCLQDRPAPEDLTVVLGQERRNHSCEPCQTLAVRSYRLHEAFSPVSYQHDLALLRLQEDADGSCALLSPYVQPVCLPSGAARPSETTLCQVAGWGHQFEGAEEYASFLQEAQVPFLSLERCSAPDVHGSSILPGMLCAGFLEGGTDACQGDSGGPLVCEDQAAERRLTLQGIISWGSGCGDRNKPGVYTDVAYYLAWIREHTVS

[10] = molecular target: Prothrombin (Homo sapiens, UniProt P00734); assay: Thrombin 1536 HTS Dose Response Confirmation. [Related pubchem assays: 1046 (Thrombin 1536 HTS; hits were confirmed in this assay)]; assay type: functional
[11] = molecular target: T3, Leucine aminopeptidase (Plasmodium falciparum 3D7, UniProt Q8IL11); assay: P. falciparum M17LAP inhibitors, primary screen, biochemical, fluorogenic H-Leu-NHMec substrate, 1536-well (AID 1619); assay type: functional
T3 sequence (Q8IL11 whole entry): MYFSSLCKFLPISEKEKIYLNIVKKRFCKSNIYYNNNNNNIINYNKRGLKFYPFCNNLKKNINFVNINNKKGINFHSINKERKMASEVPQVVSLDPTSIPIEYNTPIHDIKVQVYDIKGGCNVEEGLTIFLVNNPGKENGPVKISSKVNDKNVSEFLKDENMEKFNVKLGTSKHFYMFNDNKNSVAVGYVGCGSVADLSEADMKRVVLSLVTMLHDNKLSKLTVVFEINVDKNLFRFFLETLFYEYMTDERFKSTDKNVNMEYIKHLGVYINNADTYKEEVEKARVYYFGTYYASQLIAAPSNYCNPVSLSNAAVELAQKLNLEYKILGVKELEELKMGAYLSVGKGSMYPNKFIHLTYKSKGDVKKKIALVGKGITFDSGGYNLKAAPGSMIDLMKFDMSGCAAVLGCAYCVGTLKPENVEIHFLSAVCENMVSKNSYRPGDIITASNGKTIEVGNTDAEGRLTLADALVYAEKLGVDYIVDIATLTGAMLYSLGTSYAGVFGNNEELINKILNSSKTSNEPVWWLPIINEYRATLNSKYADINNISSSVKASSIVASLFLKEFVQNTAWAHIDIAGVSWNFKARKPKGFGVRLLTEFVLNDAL

[12] = Luminescence Cell-Based Dose Confirmation HTS to Identify Activators of 5'UTR Stem-Loop Driven Alpha-Synuclein mRNA Translation in H4 Neuroglioblastoma Cells. [Related pubchem assays: 1829 (Project Summary), 1814 (Primary HTS)]; assay type: functional
[13] = system: H4; assay: Luminescence Cell-Based Dose Response HTS to Identify Activators of 5'UTR Stem-Loop Driven Prion Protein mRNA Translation in H4 Neuroglioblastoma Cells. [Related pubchem assays: 1829 (Project Summary), 1814 (Primary HTS)]; assay type: functional; settings: Homo sapiens
[14] = Luminescence Cell-Based Dose Response HTS to Identify Activators of Luciferase Translation or Activity in H4 […] Cells. [Related pubchem assays: 1829 (Project Summary), 1814 (Primary HTS)]; assay type: functional
[15] = system: HEK293; assay: inhibition of NOD1-driven NF-kB reporter – cell-based, luminescence, uHTS, primary screen (AID 1578); assay type: functional; settings: Homo sapiens
[16] = system: HEK293; assay: cells; assay type: functional, cell-based; settings: Homo sapiens
[17] = system: HEK293; assay: cells; assay type: functional, cell-based; settings: Homo sapiens; remark: listed apart in the source
[18] = system: HEK293; assay: NOD2 signaling inhibitors in MDP-stimulated cells, cell-based, uHTS, luminescence (AID 2001); assay type: functional; settings: Homo sapiens
[19] = molecular target: Nucleotide-binding oligomerization domain-containing protein 2 (Homo sapiens, UniProt Q9HC29); assay: inhibition of NOD2-driven NF-kB reporter – cell-based, luminescence, uHTS, HEK293 (AID 1566); assay type: functional
[20] = system: HEK293; assay: cells; assay type: functional, cell-based; settings: Homo sapiens; remark: listed apart in the source

Sequence of Nucleotide-binding oligomerization domain-containing protein 2 (Q9HC29 whole entry, the tested form may be a part): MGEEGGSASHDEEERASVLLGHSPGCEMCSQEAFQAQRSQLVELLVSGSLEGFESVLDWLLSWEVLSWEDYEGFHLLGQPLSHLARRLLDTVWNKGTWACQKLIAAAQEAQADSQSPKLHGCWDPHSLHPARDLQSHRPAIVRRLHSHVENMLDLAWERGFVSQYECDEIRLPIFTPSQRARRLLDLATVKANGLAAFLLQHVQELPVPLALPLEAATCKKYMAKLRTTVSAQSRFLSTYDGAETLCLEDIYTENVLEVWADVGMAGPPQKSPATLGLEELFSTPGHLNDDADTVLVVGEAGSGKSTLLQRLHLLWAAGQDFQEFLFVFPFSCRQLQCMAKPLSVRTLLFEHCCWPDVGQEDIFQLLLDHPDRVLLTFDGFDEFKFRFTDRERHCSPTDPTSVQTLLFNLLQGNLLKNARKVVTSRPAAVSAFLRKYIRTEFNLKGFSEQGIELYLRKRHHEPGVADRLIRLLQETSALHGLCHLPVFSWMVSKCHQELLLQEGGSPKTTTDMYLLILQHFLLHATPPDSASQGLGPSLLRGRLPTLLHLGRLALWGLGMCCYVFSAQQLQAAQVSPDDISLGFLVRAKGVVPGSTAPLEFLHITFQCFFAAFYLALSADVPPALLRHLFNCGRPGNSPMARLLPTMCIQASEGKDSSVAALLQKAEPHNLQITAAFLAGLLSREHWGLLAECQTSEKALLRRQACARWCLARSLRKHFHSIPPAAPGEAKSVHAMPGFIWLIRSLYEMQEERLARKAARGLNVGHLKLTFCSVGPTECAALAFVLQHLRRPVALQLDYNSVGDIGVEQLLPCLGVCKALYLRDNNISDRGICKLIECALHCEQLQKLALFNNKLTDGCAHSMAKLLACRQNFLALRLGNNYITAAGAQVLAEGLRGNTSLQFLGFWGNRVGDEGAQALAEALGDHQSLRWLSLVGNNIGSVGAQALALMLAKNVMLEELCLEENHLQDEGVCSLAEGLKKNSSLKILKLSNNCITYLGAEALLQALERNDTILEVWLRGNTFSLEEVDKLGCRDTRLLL

In the case of `COc1ccc(NC(=O)c2cc3c(Cl)nc4ccccc4c3s2)cc1OC`, the IC50 [1] is reported as > 80 µM (inactive), the EC50 [2] is reported as 58.6 µM (active) and the EC50 [3] is reported as 48.8 µM (active).
With `O=C(NCCCN1CCCC1)c1cc2c(Cl)nc3ccccc3c2s1` the CC50 [4] was > 20 µM (active), the CC50 [5] was 38.7 µM (active) and the IC50 [6] was 30.8 µM (active). The AC50 [7] was 7.11 µM (active) and the CC50 [8] was > 20 µM (active).
With `Cc1ccc(S(=O)(=O)Nc2cccnc2Oc2ccc(Cl)cc2)cc1` the IC50 [9] was > 50 µM (inactive) and the IC50 [10] was > 50 µM (not active).
In the case of `CC12CCC(c3c(C(=O)N4CCOCC4)nn(-c4ccccc4)c31)C2(C)C` (stereo not given), the IC50 [9] is reported as > 50 µM (inactive).
For `COc1ccc(-n2ncc3c(NCc4ccccn4)ncnc32)cc1`, the IC50 [9] was > 50 µM (inactive).
For `CSC1=NSC2=NC(=O)/C(=C\c3cccs3)C(=N)N12`, the IC50 [11] was 32.2 µM (active), the CC50 [4] was > 20 µM (active) and the CC50 [5] was > 40 µM (active). The EC50 [12] was 8.94 µM (active), the CC50 [8] was > 20 µM (active) and the EC50 [13] was 75 µM (active). For the same compound, the EC50 [14] was 0.418 µM (active).
With `Cc1cc(C(=O)COc2cccnc2[N+](=O)[O-])c(C)n1Cc1ccco1` the EC50 [15] was > 20 µM (inactive), the IC50 [16] was 18.2 µM (active) and the IC50 [17] was > 20 µM (inactive). For the same compound, the IC50 [18] was > 20 µM (inactive), the EC50 [19] was 13.1 µM (active) and the IC50 [20] was > 20 µM (inactive).
